ChEMBL document CHEMBL1667731, “N-hydroxypyridones, phenylhydrazones, and a quinazolinone from Isaria farinosa” (J Nat Prod, 2011)
pIC50: −log10 of the molar value.

Assays:
Streptococcus pneumoniae = experiment: Antibacterial activity against Streptococcus pneumoniae CGMCC 1.1692 after 24 hrs; type: functional, organism-based; conditions: CGMCC 1.1692, 24 h
A549 = experiment: Cytotoxicity against human A549 cells assessed as inhibition of cell viability by MTT assay; type: functional, cell-based
Staphylococcus aureus = experiment: Antibacterial activity against Staphylococcus aureus CGMCC 1.2465 after 24 hrs; conditions: CGMCC 1.2465, 24 h
Candida albicans = experiment: Antifungal activity against Candida albicans CGMCC 2.2086 after 24 hrs; type: functional, organism-based; conditions: CGMCC 2.2086, 24 h

Row | Structure (SMILES) | pIC50 (Streptococcus pneumoniae) | pIC50 (A549; Homo sapiens, A549) | pIC50 (Staphylococcus aureus) | pIC50 (Candida albicans) | pIC50 (A549; a549)
1 | CC[C@@H](C)C[C@@H](C)/C=C(C)/C=C/C=C/C(=O)c1c(O)c(C2=CC[C@@H](O)CC2)cn(O)c1=O [MILITARINONE E] | < 3.82 | 5.80 | < 3.82 | < 3.82 | –
2 | CC1(C)S[C@@H]2[C@H](NC(=O)[C@H](N)c3ccccc3)C(=O)N2[C@H]1C(=O)O [AMPICILLIN] | 5.97 | – | 7.22 | – | –
3 | O=c1[nH]c(Cc2ccc(O)cc2)nc2ccccc12 | < 3.82 | < 3.92 | < 3.82 | – | < 3.92
4 | CC[C@@H](C)C[C@@H](C)/C=C(C)/C=C/C=C/C(=O)c1c(O)c([C@]23CC[C@H](CC2)O3)cn(O)c1=O [MILITARINONE F] | < 3.82 | < 3.92 | < 3.82 | – | < 3.92
5 | CC[C@@H](C)C[C@@H](C)/C=C(C)/C=C/C=C/C(=O)c1c(O)c([C@]2(O)CC[C@@H](O)CC2)cn(O)c1=O [MILITARINONE A] | < 3.82 | 5.76 | < 3.82 | < 3.82 | –
6 | CC[C@@H](C)C[C@@H](C)/C=C(C)/C=C/C=C/C(=O)c1c(O)c(-c2ccc(O)cc2)c[nH]c1=O [MILITARINONE B] | 5.59 | < 3.92 | 5.68 | 4.36 | –
7 | C/C(=N\Nc1ccccc1C(=O)O)C(=O)NCC(=O)O [FARYLHYDRAZONE A] | < 3.82 | < 3.92 | < 3.82 | – | < 3.92
8 | C/C(=N\Nc1ccccc1C(=O)O)C(=O)O [FARYLHYDRAZONE B] | < 3.82 | < 3.92 | < 3.82 | – | < 3.92
9 | C[C@@H]1[C@H](O)[C@@H](C)/C=C/C=C/C=C/C=C/C=C/C=C/C=C/[C@H](O[C@@H]2O[C@H](C)[C@@H](O)[C@H](N)[C@@H]2O)C[C@@H]2O[C@](O)(C[C@@H](O)C[C@@H](O)[C@H](O)CC[C@@H](O)C[C@@H](O)CC(=O)O[C@H]1C)C[C@H](O)[C@H]2C(=O)O [AMPHOTERICIN B] | – | – | – | 6.14 | –
